These results are taken from ChEMBL document CHEMBL5291721, “A preclinical secondary pharmacology resource illuminates target-adverse drug reaction associations of marketed drugs” (Nat Commun, 2023).

For orientation: AC50 means the midpoint of the concentration-response curve, whichever way the signal moves.

Assay [1] concerns the target Sodium-dependent dopamine transporter (Homo sapiens, UniProt Q01959).
Assay [2] has as its target T1, 5-hydroxytryptamine receptor 1A (Homo sapiens, UniProt P08908).
T1 sequence (P08908 whole entry): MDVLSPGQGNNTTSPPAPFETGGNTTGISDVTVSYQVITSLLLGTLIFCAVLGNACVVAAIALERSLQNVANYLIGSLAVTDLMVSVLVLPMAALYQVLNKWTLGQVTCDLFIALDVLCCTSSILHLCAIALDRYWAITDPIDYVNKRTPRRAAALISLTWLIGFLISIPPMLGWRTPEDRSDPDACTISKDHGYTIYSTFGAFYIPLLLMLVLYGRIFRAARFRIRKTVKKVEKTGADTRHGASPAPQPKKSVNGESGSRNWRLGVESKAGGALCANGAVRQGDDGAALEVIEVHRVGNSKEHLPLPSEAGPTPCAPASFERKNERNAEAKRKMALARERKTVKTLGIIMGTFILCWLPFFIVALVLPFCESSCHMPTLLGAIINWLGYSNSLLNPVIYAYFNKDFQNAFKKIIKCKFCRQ

Assay [3] addresses T2, Muscarinic acetylcholine receptor M1 (Homo sapiens, UniProt P11229).
T2 sequence (P11229 whole entry): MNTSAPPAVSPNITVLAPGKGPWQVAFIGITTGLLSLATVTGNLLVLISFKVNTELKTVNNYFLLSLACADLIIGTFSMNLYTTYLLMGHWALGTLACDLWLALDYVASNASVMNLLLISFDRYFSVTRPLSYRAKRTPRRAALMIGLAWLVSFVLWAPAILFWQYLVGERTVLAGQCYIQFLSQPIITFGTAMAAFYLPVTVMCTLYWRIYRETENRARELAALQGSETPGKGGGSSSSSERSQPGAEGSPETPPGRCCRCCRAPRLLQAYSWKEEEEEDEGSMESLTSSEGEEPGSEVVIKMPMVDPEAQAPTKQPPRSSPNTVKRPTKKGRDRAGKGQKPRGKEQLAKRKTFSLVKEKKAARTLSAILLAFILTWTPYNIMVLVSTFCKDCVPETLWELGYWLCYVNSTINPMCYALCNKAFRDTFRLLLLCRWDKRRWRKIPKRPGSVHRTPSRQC
In kind it is functional, cell-based.

The target of the next assay is Prothrombin (Homo sapiens, UniProt P00734). The assay is classed as functional.
The target of assay [4] is 3',5'-cyclic-AMP phosphodiesterase 4A (Homo sapiens, UniProt P27815). The assay is classed as functional.
The target in assay [5] is Prostaglandin G/H synthase 1 (Homo sapiens, UniProt P23219). The assay is classed as functional.
Assay [6] addresses Vascular endothelial growth factor receptor 2 (Homo sapiens, UniProt P35968). The assay is classed as functional.
Assay [7] concerns the target T3, Gastrin/cholecystokinin type B receptor (Homo sapiens, UniProt P32239).
T3 sequence (P32239 whole entry): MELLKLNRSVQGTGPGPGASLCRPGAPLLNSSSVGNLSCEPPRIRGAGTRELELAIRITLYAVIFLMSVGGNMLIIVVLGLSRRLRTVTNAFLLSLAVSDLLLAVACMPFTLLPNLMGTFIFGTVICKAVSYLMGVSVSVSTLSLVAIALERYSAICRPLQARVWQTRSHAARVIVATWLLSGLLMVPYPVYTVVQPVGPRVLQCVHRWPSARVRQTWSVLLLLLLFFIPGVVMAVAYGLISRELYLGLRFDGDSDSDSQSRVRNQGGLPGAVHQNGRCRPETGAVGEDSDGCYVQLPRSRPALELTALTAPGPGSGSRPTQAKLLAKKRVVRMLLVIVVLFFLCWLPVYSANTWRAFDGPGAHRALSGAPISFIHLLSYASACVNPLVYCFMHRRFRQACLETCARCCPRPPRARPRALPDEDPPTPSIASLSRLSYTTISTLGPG

The target in assay [8] is T4, Alpha-1A adrenergic receptor (Homo sapiens, UniProt P35348).
T4 sequence (P35348 whole entry): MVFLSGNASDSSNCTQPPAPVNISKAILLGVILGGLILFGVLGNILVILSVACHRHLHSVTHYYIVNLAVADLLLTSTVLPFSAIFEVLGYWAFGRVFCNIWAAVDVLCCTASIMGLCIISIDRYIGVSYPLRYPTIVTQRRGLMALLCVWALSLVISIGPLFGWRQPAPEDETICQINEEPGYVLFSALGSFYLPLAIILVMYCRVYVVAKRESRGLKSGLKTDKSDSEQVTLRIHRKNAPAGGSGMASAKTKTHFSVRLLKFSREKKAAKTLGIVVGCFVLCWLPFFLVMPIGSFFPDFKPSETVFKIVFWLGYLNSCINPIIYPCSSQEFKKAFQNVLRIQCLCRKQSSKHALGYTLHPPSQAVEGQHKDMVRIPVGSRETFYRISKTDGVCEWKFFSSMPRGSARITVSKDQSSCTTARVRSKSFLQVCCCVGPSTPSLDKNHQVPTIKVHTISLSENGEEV

In a further assay the target is T5, Thromboxane A2 receptor (Homo sapiens, UniProt P21731).
T5 sequence (P21731 whole entry): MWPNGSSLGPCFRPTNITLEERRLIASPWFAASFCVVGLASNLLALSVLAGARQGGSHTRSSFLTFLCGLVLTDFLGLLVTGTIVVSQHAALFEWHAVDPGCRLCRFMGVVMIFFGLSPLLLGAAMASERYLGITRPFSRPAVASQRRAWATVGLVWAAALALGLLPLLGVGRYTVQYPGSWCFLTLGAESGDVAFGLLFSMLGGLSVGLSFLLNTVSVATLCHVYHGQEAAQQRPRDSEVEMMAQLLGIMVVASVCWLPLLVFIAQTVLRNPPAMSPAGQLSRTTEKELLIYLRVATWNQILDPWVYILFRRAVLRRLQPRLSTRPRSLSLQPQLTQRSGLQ

The target of the next assay is T6, Endothelin-1 receptor (Homo sapiens, UniProt P25101).
T6 sequence (P25101 whole entry): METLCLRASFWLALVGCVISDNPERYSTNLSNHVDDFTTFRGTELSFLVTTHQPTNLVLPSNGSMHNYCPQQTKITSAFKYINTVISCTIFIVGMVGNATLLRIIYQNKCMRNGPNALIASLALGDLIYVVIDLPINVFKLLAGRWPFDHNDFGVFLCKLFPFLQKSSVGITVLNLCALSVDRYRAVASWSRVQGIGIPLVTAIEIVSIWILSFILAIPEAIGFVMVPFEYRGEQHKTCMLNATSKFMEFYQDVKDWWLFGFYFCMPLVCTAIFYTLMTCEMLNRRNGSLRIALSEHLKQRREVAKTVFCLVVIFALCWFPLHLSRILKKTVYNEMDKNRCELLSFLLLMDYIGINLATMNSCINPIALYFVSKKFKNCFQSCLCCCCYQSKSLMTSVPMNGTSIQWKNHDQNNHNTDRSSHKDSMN
Note: assay procedure not described here.

3',5'-cyclic-AMP phosphodiesterase 4A, sequence (P27815 whole entry): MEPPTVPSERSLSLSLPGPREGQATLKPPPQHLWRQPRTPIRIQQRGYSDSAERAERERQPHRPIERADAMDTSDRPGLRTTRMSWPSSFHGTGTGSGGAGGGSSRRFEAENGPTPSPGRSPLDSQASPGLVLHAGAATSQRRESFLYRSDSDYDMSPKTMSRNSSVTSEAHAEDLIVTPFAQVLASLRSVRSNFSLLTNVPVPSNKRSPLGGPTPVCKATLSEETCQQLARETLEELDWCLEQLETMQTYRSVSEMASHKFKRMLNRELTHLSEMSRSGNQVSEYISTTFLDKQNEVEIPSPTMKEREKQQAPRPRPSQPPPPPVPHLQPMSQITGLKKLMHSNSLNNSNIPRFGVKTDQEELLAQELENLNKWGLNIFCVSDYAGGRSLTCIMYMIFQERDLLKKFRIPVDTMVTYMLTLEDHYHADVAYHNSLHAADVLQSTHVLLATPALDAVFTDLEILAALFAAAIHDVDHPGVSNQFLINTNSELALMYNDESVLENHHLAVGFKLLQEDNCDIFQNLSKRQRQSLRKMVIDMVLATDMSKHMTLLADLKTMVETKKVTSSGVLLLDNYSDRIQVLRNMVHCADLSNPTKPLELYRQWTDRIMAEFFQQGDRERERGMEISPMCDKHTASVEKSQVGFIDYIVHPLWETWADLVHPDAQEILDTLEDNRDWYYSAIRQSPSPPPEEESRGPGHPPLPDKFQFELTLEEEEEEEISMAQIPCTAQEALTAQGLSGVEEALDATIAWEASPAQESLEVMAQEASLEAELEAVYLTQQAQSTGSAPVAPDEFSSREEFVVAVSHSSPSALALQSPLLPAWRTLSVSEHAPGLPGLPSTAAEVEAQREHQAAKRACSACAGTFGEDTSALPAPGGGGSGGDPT
Sodium-dependent dopamine transporter, sequence (Q01959 whole entry): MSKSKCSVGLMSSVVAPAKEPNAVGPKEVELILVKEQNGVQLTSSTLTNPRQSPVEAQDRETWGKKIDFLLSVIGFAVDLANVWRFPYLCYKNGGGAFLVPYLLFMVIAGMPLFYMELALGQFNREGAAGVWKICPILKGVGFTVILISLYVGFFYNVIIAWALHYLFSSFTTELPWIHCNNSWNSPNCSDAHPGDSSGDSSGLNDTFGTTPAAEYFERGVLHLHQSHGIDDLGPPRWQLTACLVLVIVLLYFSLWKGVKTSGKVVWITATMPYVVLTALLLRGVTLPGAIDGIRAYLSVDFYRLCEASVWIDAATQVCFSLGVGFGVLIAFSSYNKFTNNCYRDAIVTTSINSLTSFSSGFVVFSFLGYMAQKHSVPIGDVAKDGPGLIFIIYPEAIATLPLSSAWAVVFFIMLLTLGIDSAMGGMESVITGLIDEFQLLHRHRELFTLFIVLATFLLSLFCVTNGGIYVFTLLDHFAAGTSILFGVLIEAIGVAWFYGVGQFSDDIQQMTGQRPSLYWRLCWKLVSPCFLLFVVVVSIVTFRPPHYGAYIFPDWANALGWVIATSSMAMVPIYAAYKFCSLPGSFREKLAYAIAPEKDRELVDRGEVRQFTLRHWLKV
Prostaglandin G/H synthase 1, sequence (P23219 whole entry): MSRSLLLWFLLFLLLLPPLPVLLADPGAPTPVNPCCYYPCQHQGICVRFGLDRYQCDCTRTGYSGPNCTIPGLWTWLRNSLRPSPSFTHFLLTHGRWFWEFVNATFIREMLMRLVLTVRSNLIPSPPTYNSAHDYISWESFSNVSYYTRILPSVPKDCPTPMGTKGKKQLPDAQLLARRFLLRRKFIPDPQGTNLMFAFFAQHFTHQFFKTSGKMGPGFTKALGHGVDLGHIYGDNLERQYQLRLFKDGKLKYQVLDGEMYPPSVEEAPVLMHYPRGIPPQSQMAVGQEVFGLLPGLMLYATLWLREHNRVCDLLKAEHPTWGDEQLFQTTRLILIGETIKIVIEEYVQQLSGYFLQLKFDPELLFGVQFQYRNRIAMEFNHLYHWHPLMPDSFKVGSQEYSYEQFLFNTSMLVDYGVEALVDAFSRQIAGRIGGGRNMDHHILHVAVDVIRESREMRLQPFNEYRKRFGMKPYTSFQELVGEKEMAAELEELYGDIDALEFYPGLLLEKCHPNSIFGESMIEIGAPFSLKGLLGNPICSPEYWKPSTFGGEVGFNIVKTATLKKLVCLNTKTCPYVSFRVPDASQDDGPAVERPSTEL
Vascular endothelial growth factor receptor 2, sequence (P35968 whole entry): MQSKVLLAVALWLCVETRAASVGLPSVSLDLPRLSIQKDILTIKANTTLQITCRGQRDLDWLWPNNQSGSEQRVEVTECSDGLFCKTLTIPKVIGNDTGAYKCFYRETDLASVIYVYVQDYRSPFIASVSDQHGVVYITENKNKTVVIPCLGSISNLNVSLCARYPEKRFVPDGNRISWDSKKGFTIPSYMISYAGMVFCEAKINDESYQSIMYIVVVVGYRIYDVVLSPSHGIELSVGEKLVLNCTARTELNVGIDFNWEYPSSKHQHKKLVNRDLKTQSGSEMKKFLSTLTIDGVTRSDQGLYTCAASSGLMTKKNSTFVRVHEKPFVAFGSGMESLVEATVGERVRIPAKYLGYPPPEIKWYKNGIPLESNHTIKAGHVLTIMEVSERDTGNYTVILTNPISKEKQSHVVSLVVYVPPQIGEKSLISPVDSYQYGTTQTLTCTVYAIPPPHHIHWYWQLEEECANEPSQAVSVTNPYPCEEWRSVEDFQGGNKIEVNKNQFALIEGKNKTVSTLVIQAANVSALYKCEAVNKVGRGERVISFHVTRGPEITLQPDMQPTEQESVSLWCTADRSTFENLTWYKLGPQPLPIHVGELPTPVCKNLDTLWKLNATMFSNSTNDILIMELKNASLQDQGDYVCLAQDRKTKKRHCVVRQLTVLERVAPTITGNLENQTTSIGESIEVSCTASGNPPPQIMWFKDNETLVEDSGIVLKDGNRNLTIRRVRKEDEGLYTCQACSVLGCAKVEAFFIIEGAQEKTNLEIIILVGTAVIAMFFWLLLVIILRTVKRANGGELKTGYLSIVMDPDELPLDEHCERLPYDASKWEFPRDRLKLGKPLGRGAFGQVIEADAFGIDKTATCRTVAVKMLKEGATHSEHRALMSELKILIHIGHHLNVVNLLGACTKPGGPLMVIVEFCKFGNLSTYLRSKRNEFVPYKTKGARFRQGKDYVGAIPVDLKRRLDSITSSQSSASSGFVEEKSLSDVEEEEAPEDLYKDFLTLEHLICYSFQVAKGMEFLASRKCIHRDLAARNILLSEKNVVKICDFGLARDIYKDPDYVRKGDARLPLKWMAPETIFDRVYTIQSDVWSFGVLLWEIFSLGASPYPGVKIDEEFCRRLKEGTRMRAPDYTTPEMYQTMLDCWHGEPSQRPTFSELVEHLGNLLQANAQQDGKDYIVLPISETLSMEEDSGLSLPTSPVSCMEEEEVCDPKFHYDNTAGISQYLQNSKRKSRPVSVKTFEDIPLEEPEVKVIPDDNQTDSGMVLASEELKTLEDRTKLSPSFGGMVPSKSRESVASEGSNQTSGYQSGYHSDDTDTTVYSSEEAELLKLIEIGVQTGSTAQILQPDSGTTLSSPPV

In the case of `COC(c1ccccc1)(c1ccccc1)[C@H](Oc1nc(C)cc(C)n1)C(=O)O` [AMBRISENTAN], the AC50 (in assay [1]; in [2]; in assay [3]; on Prothrombin; in [4]; in assay [5]) was more than 30 µM in each case. Besides, the concentration at half-maximal activity (AC50) in assay [6] was more than 30 µM.
As to `CN(C)CCn1nnnc1SCC1=C(C(=O)O)N2C(=O)[C@@H](NC(=O)Cc3csc(N)n3)[C@H]2SC1` [CEFOTIAM], the half-maximal activity concentration (AC50) (in [1]; in assay [2]; in [3]; at Prothrombin; in assay [4]; in assay [5]) was more than 30 µM in each case.
As for `CN(C)CC(c1ccc(O)cc1)C1(O)CCCCC1` (centres undefined) [DESVENLAFAXINE], the AC50 (in [2]; in [3]; on Prothrombin; in assay [4]; in assay [5]; in assay [6]) was more than 30 µM in each case.
On to `O=C(Cc1ccc(-c2ccccc2)cc1)Nc1ccccn1` [DIFENPIRAMIDE], for which the AC50 is 0.58 µM in assay [1]; more than 30 µM in assay [2]; more than 10 µM in [3]; more than 30 µM at Prothrombin; more than 30 µM in [4]; more than 30 µM in assay [5].
Turning to `Cc1cc(C#N)cc(C)c1Oc1nc(Nc2ccc(C#N)cc2)nc(N)c1Br` [ETRAVIRINE], the concentration at half-maximal activity (AC50) was more than 10 µM in [1]; more than 30 µM in assay [2]; 2.71 µM in assay [3]; more than 30 µM at Prothrombin; more than 30 µM in assay [4]; 14.4 µM in assay [5].
Consider `N[C@@H](C(=O)N[C@@H]1C(=O)N2C(C(=O)O)=C(Cl)CC[C@H]12)c1ccccc1` [LORACARBEF ANHYDROUS], for which the AC50 (in assay [1]; in assay [2]; in assay [3]; on Prothrombin; in assay [4]; in assay [5]) was more than 30 µM each time.
`CC1(C)NC(=O)N(c2ccc([N+](=O)[O-])c(C(F)(F)F)c2)C1=O` [NILUTAMIDE]: the AC50 in assay [1] is more than 30 µM; in assay [2], more than 30 µM; in assay [3], more than 3 µM; on Prothrombin, more than 30 µM; in assay [4] it was more than 30 µM; in [5], more than 30 µM. In addition, the AC50 (in [7]; in assay [8]; on Thromboxane A2 receptor) was more than 30 µM in each case.
Take `COCCCN1CCC(NC(=O)c2cc(Cl)c(N)c3c2OCC3)CC1` [PRUCALOPRIDE]: the AC50 in assay [1] was more than 30 µM; in assay [2], 6.1 µM; in assay [3], more than 30 µM; at Prothrombin, more than 30 µM; in assay [4], more than 30 µM; at Endothelin-1 receptor it was more than 30 µM. The compound further had an AC50 in [5] of more than 30 µM.
On to `CCC(=O)NCC[C@@H]1CCc2ccc3c(c21)CCO3` [RAMELTEON], for which the AC50 (in [1]; in [2]; in [3]; on Prothrombin; in [4]; in assay [5]) was more than 30 µM throughout.
Consider `Cc1cn([C@H]2C=C[C@@H](CO)O2)c(=O)[nH]c1=O` [STAVUDINE], for which the half-maximal activity concentration (AC50) (in assay [1]; in assay [2]; on Prothrombin; in [4]; at Endothelin-1 receptor; in assay [5]) was more than 30 µM each time. Further, the AC50 in assay [7] was more than 30 µM; in assay [6], more than 30 µM; in assay [8], 29.9 µM; on Thromboxane A2 receptor, more than 30 µM.
Take `Cc1cn([C@H]2C[C@H](N=[N+]=[N-])[C@@H](CO)O2)c(=O)[nH]c1=O` [ZIDOVUDINE]: the AC50 (in assay [1]; in assay [2]; at Prothrombin; in [4]; on Endothelin-1 receptor; in [5]) was more than 30 µM each time. For the same compound, the AC50 was more than 30 µM in [7], more than 30 µM in assay [6], more than 10 µM in assay [8] and more than 30 µM on Thromboxane A2 receptor.
